In patent US20200339511A1, “Substituted indoline derivatives as dengue viral replication inhibitors” (priority 2016, published 2020) one finds CC50 and EC50 data, which are given here for 16 compounds.

One data set is described as follows: in vitro. To be noted: African green monkey.
The subject of another data set is DENV-2 16681 strain. Put plainly: DENV-2 antiviral assay (eGFP-labeled virus in Vero cells). The conditions noted are these: DENV-2 16681 eGFP, MOI 0.5, 3 days. In kind it is cell-based, Dengue virus. On the procedure:
The antiviral activity of all the compounds of the invention was tested the against DENV-2 16681 strain which was labeled with enhanced green fluorescent protein (eGPF). The culture medium consists of minimal essential medium supplemented with 2% of heat-inactivated fetal calf serum, 0.04% gentamycin (50 mg/mL) and 2 mM of L-glutamine. Vero cells, obtained from ECACC, were suspended in culture medium and 25 μL was added to 384-well plates (2500 cells/well), which already contain the antiviral compounds. Typically, these plates contain a 5-fold serial dilution of 9 dilution steps of the test compound at 200 times the final concentration in 100% DMSO (200 nL). […] Finally, each plate contains wells which are assigned as virus controls (containing cells and virus in the absence of compound), cell controls (containing cells in the absence of virus and compound) and medium controls (containing medium in the absence of cells, virus and compounds). To the wells assigned as medium control, 25 μL of culture medium was added instead of Vero cells. Once the cells were added to the plates, the plates were incubated for 30 minutes at room temperature to allow the cells to distribute evenly within the wells. Next, the plates were incubated in a fully humidified incubator (37° C., 5% CO2) until the next day. Then, DENV-2 strain 16681, labeled with eGFP, was added at a multiplicity of infection (MOI) of 0.5. Therefore, 15 μL of virus suspension was added to all the wells containing test compound and to the wells assigned as virus control. In parallel, 15 μL of culture medium was added to the medium and cell controls. Next, the plates were incubated for 3 days in a fully humidified incubator (37° C., 5% CO2). At the day of the read out, the eGFP fluorescence was measured using an automated fluorescence microscope at 488 nm (blue laser). Using an in-house LIMS system, inhibition dose response curves for each compound were calculated and the half maximal effective concentration (EC50) was determined. Therefore, the percent inhibition (I) for every test concentration is calculated using the following formula: I=100*(ST-SCC)/(SVC-SCC), ST, SCC and SVC are the amount of eGFP signal in the test compound, cell control and virus control wells, respectively. The EC50 represents the concentration of a compound at which the virus replication is inhibited with 50%, as measured by a 50% reduction of the eGFP fluorescent intensity compared to the virus control. The EC50 is calculated using linear interpolation (Table 1).

A further data set relates to Vero cells. The conditions noted are these: African green monkey.
The mark [1] stands for this setting: Dengue virus, DENV2, Vero, 72 h.

Usually EC50 stands for the midpoint of the concentration-response curve. As for `COc1cc(NC(C(=O)N2CCc3ccc(C(F)(F)F)cc32)c2ccc(Cl)cc2F)cc(OCCO)c1` (racemic) [Compound 2, 2-(4-chloro-2-fluorophenyl)-2-((3-(2-hydroxyethoxy)-5-methoxyphenyl)amino)-1-(6-(trifluoromethyl)indolin-1-yl)ethanone], the CC50 in the data set “in vitro” turned out to be 12000 nM. In the data set with DENV-2 16681 strain (setting [1]), this compound came in with an EC50 of 8.9 nM.

In the data set “in vitro”, `COc1cc(NC(C(=O)N2CCc3ccc(OC(F)(F)F)cc32)c2ccc(Cl)cc2F)cc(OCCO)c1` (racemic) [Compound 6, 2-(4-chloro-2-fluorophenyl)-2-((3-(2-hydroxyethoxy)-5-methoxyphenyl)amino)-1-(6-(trifluoromethoxy)indolin-1-yl)ethanone] had a CC50 of 14000 nM. The compound further gave a 50% effective concentration (EC50) in the data set on DENV-2 16681 strain (setting [1]) of 6.2 nM.

Consider `COc1cc(NC(C(=O)N2CCc3cc(OC)c(C(F)(F)F)cc32)c2ccc(Cl)cc2)cc(OCCO)c1` (single isomer, unassigned) [Compound 7A, 2-(4-chlorophenyl)-2-((3-(2-hydroxyethoxy)-5-methoxyphenyl)amino)-1-(5-methoxy-6-(trifluoromethyl)indolin-1-yl)ethanone], for which the CC50 in the data set “in vitro” worked out at 21000 nM. The same compound displayed a 50% effective concentration (EC50) in the data set with DENV-2 16681 strain of 790 nM.

`COc1cc(NC(C(=O)N2CCc3cc(OC)c(OC(F)(F)F)cc32)c2ccc(Cl)cc2)cc(OCCO)c1` (single isomer, unassigned) [Compound 13B, 2-(4-chlorophenyl)-2-((3-(2-hydroxyethoxy)-5-methoxyphenyl)amino)-1-(5-methoxy-6-(trifluoromethoxy)indolin-1-yl)ethanone] yielded a half-maximal effective concentration (EC50) with DENV-2 16681 strain of 280 nM. The CC50 in the data set on Vero cells is above 25000 nM.

`COc1cc(NC(C(=O)N2CCc3c(C)cc(C(F)(F)F)cc32)c2ccc(Cl)cc2)cc(OCCO)c1` (single isomer, unassigned) [Compound 10A, 2-(4-chlorophenyl)-2-((3-(2-hydroxyethoxy)-5-methoxy-phenyl)amino)-1-(4-methyl-6-(trifluoromethyl)indolin-1-yl)ethanone] gave a CC50 in the data set “in vitro” of 11000 nM. The same compound yielded a concentration for a half-maximal effect (EC50) in the data set with DENV-2 16681 strain of 1300 nM.

`COc1cc(NC(C(=O)N2CCc3ccc(OC(F)(F)F)cc32)c2ccc(Cl)cc2F)cc(OCCO)c1` (single isomer, unassigned) [Compound 6A, 2-(4-chloro-2-fluorophenyl)-2-((3-(2-hydroxyethoxy)-5-methoxyphenyl)amino)-1-(6-(trifluoromethoxy)indolin-1-yl)ethanone] had a CC50 in “in vitro” of 17000 nM. Further, in the data set with DENV-2 16681 strain, the response was half-maximal at 280 nM (EC50).

In turn, `COc1cc(NC(C(=O)N2CCc3c(C)cc(OC(F)(F)F)cc32)c2ccc(Cl)cc2)cc(OCCO)c1` (single isomer, unassigned) [Compound 9A, 2-(4-chlorophenyl)-2-((3-(2-hydroxyethoxy)-5-methoxy-phenyl)amino)-1-(4-methyl-6-(trifluoromethoxy)indolin-1-yl)ethanone] gave a CC50 in “in vitro” of 13000 nM. This compound registered an EC50 in the data set on DENV-2 16681 strain of 1000 nM.

In the data set with DENV-2 16681 strain, `COc1cc(NC(C(=O)N2CCc3ccc(OC(F)(F)F)cc32)c2ccc(Cl)cc2OC)cc(OCCO)c1` (single isomer, unassigned) [Compound 5B, 2-(4-chloro-2-methoxyphenyl)-2-((3-(2-hydroxyethoxy)-5-methoxyphenyl)amino)-1-(6-(trifluoromethoxy)indolin-1-yl)ethanone] registered a half-maximal effective concentration (EC50) of 760 nM. The same compound displayed a CC50 in the data set on Vero cells of 14000 nM.

In turn, `COc1cc(NC(C(=O)N2CCc3ccc(C(F)(F)F)cc32)c2ccc(Cl)cc2F)cc(OCCO)c1` (single isomer, unassigned) [Compound 2A, 2-(4-chloro-2-fluorophenyl)-2-((3-(2-hydroxyethoxy)-5-methoxyphenyl)amino)-1-(6-(trifluoromethyl)indolin-1-yl)ethanone] registered a CC50 in the data set “in vitro” of 18000 nM. Also, the EC50 in the data set on DENV-2 16681 strain came out at 320 nM.

Compound `COc1cc(NC(C(=O)N2CCc3cc(OC)c(C(F)(F)F)cc32)c2ccc(Cl)cc2)cc(OCCO)c1` (racemic) [Compound 7, 2-(4-chlorophenyl)-2-((3-(2-hydroxyethoxy)-5-methoxyphenyl)amino)-1-(5-methoxy-6-(trifluoromethyl)indolin-1-yl)ethanone] registered a CC50 in the data set “in vitro” of 11000 nM. Moreover, in the data set with DENV-2 16681 strain (setting [1]), the midpoint of the response, the EC50, lay at 2.3 nM.

As for `COc1cc(NC(C(=O)N2CCc3cc(OC)c(C(F)(F)F)cc32)c2ccc(Cl)cc2F)cc(OCCO)c1` (racemic) [Compound 8, 2-(4-chloro-2-fluorophenyl)-2-((3-(2-hydroxyethoxy)-5-methoxyphenyl)amino)-1-(5-methoxy-6-(trifluoromethyl)indolin-1-yl)ethanone], in the data set “in vitro”, the CC50 is above 25000 nM. This compound also came in with a 50% effective concentration (EC50) in the data set with DENV-2 16681 strain (setting [1]) of 4.4 nM.

On to `COc1cc(NC(C(=O)N2CCc3cc(OC)c(C(F)(F)F)cc32)c2ccc(Cl)cc2OC)cc(OCCO)c1` (single isomer, unassigned) [Compound 11A, 2-(4-chloro-2-methoxyphenyl)-2-((3-(2-hydroxyethoxy)-5-methoxyphenyl)amino)-1-(5-methoxy-6-(trifluoromethyl)indolin-1-yl)ethanone], for which the CC50 in “in vitro” was above 25000 nM. The compound also displayed an EC50 in the data set on DENV-2 16681 strain of 330 nM.

With `COc1cc(NC(C(=O)N2CCc3ccc(OC(F)(F)F)cc32)c2ccc(Cl)cc2)cc(OCCO)c1` (single isomer, unassigned) [Compound 3B, 2-(4-chlorophenyl)-2-((3-(2-hydroxyethoxy)-5-methoxyphenyl)amino)-1-(6-(trifluoromethoxy)indolin-1-yl)ethanone], in the data set on DENV-2 16681 strain, the midpoint of the response, the EC50, lay at 590 nM. Moreover, the CC50 in the data set on Vero cells stood at 12000 nM.

`COc1cc(NC(C(=O)N2CCc3cc(OC)c(C(F)(F)F)cc32)c2ccc(Cl)cc2F)cc(OCCO)c1` (single isomer, unassigned) [Compound 8A, 2-(4-chloro-2-fluorophenyl)-2-((3-(2-hydroxyethoxy)-5-methoxyphenyl)amino)-1-(5-methoxy-6-(trifluoromethyl)indolin-1-yl)ethanone] returned an EC50 in the data set with DENV-2 16681 strain of 460 nM. The compound further gave a CC50 in the data set with Vero cells above 25000 nM.

Take `COc1cc(NC(C(=O)N2CCc3ccc(C(F)(F)F)cc32)c2ccc(Cl)cc2OC)cc(OCCO)c1` (single isomer, unassigned) [Compound 1A, 2-(4-chloro-2-methoxyphenyl)-2-((3-(2-hydroxyethoxy)-5-methoxyphenyl)amino)-1-(6-(trifluoromethyl)indolin-1-yl)ethanone]: the CC50 in the data set “in vitro” amounted to 13000 nM. In the data set with DENV-2 16681 strain, this compound displayed a 50% effective concentration (EC50) of 220 nM.

As for `COc1cc(NC(C(=O)N2CCc3cc(F)c(C(F)(F)F)cc32)c2ccc(Cl)cc2)cc(OCCO)c1` (single isomer, unassigned) [Compound 12B, 2-(4-chlorophenyl)-1-(5-fluoro-6-(trifluoromethyl)indolin-1-yl)-2-((3-(2-hydroxyethoxy)-5-methoxyphenyl)amino)ethanone], in the data set on DENV-2 16681 strain, the EC50 came out at 400 nM. This compound showed a CC50 in the data set on Vero cells of 11000 nM.
